Columns and labels:
[1] = target: T1, HiBit-BRG1 fusion protein (Homo sapiens, UniProt P51532); assay: HiBiT-BRG1 cell-based degradation assay (Nano-Glo HiBiT Lytic Detection); conditions: stable HeLa cell line expressing HiBit-BRG1 and LgBit, 24 h incubation; for Dmax: top dose 30 μM, read-out: BRG1 HiBit Degradation Maximum (%); for DC50: read-out: BRMG1 HiBit Degradation IC50
T1 construct: expressed in transfected cells
Procedure, shortened: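 HeLa cells stably expressing HiBiT-BRG1 and LgBiT treated 24 h with 10-point 3-fold dilutions (top 30 μM, duplicate). Luminescence read after Nano-Glo HiBiT lytic reagent; % degradation relative to DMSO (high control) and 2 μM reference BRM/BRG1 degrader (low control).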

HiBit-BRM fusion protein = target: T2, HiBit-BRM fusion protein (Homo sapiens, UniProt P51531); assay: HiBiT-BRM cell-based degradation assay (Nano-Glo HiBiT Lytic Detection); conditions: stable HeLa cell line expressing HiBiT-BRM, 24 h incubation; for BRM HiBit Degradation Maximum (%): top dose 30 μM; for DC50: read-out: BRM HiBit Degradation IC50
T2 construct: expressed in transfected cells
T2 sequence (P51531 whole entry, the tested form may be a part): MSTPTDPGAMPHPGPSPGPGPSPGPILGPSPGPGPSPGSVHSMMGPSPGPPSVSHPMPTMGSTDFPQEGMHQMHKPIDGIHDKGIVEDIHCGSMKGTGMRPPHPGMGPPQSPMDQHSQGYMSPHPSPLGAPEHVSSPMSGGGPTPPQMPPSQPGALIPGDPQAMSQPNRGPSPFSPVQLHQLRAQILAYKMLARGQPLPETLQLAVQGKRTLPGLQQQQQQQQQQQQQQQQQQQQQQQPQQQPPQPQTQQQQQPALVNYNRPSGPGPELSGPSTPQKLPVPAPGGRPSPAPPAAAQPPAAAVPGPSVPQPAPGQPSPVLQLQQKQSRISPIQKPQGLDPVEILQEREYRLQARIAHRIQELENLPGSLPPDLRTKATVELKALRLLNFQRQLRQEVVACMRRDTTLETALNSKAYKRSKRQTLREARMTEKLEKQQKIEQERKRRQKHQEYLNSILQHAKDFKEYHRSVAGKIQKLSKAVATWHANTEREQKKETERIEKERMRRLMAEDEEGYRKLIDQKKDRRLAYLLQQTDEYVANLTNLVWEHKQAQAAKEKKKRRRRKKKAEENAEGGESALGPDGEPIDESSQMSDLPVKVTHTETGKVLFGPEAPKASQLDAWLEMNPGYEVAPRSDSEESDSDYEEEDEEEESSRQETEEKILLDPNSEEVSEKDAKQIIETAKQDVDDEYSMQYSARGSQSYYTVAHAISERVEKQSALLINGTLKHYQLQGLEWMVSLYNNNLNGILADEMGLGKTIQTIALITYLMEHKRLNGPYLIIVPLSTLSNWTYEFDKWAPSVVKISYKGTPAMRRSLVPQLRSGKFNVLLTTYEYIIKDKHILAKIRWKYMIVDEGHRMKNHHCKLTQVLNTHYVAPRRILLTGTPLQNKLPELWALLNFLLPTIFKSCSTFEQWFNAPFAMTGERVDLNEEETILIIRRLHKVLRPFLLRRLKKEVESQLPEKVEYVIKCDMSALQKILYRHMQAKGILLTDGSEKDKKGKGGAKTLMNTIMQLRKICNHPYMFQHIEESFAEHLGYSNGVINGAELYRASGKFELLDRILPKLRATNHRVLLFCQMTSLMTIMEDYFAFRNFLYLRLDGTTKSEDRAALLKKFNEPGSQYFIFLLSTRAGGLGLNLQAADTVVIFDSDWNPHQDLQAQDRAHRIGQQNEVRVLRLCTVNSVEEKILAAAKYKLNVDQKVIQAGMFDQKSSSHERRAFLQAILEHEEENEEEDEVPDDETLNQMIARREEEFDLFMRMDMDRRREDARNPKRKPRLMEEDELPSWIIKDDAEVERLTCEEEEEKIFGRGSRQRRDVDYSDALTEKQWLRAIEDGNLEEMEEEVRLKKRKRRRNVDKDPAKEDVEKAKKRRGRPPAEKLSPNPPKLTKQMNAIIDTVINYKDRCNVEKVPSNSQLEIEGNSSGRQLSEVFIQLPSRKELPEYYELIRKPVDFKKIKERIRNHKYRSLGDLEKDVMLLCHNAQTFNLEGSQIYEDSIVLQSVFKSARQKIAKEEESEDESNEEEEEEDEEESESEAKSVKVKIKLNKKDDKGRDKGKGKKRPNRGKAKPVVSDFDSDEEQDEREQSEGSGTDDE
Procedure, shortened: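 HeLa cells stably expressing HiBiT-BRM were treated for 24 h with compounds (10-point 3-fold dilutions, 30 μM final top dose, in duplicate). HiBiT was detected by lytic LgBiT complementation luminescence. % degradation was normalized to DMSO (high control) and 2 μM of a reference BRM/BRG1 degrader (low control).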

T1 sequence (P51532 whole entry, the tested form may be a part): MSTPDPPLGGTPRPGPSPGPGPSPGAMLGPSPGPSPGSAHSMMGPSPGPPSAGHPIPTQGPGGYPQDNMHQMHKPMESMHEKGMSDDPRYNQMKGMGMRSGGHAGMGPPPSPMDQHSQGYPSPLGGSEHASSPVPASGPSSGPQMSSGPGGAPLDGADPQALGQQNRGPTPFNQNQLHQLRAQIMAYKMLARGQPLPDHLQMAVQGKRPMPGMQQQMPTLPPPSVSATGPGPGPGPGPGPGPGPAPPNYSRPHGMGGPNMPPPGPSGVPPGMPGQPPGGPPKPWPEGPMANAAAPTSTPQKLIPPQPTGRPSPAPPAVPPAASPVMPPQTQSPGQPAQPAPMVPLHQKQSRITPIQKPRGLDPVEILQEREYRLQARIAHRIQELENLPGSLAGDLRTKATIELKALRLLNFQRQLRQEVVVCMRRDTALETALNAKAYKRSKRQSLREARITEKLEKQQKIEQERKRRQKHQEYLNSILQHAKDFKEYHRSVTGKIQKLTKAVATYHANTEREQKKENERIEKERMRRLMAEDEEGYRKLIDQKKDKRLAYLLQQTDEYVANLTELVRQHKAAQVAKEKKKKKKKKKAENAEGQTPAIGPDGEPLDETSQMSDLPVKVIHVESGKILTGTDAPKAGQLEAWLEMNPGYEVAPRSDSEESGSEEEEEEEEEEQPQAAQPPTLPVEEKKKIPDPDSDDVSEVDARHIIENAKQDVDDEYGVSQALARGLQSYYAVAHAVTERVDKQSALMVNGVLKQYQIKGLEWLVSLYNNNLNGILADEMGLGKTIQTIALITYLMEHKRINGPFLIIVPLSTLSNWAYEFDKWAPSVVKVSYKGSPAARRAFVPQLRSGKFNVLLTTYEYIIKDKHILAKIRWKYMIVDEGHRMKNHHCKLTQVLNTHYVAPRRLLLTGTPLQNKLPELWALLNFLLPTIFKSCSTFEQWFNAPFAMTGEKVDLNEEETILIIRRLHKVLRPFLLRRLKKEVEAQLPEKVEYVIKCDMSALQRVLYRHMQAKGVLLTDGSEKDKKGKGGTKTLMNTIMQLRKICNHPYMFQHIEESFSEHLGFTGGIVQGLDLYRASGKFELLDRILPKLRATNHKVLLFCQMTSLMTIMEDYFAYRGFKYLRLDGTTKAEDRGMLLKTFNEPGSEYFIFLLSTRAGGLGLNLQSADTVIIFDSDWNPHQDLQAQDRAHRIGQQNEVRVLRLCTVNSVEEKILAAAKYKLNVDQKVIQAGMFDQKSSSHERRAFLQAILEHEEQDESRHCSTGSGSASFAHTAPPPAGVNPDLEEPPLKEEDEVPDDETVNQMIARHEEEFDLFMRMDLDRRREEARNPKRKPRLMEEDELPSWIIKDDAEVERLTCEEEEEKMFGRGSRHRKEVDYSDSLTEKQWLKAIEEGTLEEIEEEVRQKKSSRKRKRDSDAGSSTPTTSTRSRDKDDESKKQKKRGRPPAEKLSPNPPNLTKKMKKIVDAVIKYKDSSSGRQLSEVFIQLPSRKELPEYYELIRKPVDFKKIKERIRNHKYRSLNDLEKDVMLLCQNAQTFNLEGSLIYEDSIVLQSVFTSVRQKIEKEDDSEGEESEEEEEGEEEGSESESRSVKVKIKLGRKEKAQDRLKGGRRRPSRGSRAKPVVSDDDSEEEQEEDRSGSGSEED

Row | Compound | Dmax [1] [%] | DC50 [1] [µM] | BRM HiBit Degradation Maximum (%) (HiBit-BRM fusion protein) | DC50 (HiBit-BRM fusion protein) [µM]
1 | Cc1ncsc1-c1ccc([C@H](C)NC(=O)[C@@H]2C[C@@H](O)CN2C(=O)[C@@H](c2cc(OCCN3CCN(c4cc5nnc(-c6ccccc6O)cc5s4)CC3)no2)C(C)C)cc1 [Compound 49, (2S,4R)-4-hydroxy-1-((R)-2-(3-(2-(4-(3-(2-hydroxyphenyl)thieno[3,2-c]pyridazin-6-yl)piperazin-1-yl)ethoxy)isoxazol-5-yl)-3-methylbutanoyl)-N-((S)-1-(4-(4-methylthiazol-5-yl)phenyl)ethyl)pyrrolidine-2-carboxamide] | ≥ 75 | ≥ 0.01 | A (“A” indicates maximum degradation ≥ 75%) | < 0.01
2 | Cc1ncsc1-c1ccc([C@H](C)NC(=O)[C@@H]2C[C@@H](O)CN2C(=O)[C@@H](NC(=O)[C@H]2CC[C@@H](c3sc4nnc(-c5ccccc5O)cc4c3C)CC2)C(C)(C)C)cc1 [Compound 50, (2S,4R)-4-hydroxy-1-((S)-2-((1s,4R)-4-(3-(2-hydroxyphenyl)-5-methylthieno[2,3-c]pyridazin-6-yl)cyclohexane-1-carboxamido)-3,3-dimethylbutanoyl)-N-((S)-1-(4-(4-methylthiazol-5-yl)phenyl)ethyl)pyrrolidine-2-carboxamide] | < 50 | ≥ 1 | C (“C” indicates maximum degradation < 50%) | ≥ 1
3 | Cc1ncsc1-c1ccc([C@H](C)NC(=O)[C@@H]2C[C@@H](O)CN2C(=O)[C@@H](NC(=O)[C@H]2CC[C@H](c3sc4nnc(-c5ccccc5O)cc4c3C)CC2)C(C)(C)C)cc1 [Compound 51, (2S,4R)-4-hydroxy-1-((S)-2-((1r,4S)-4-(3-(2-hydroxyphenyl)-5-methylthieno[2,3-c]pyridazin-6-yl)cyclohexane-1-carboxamido)-3,3-dimethylbutanoyl)-N-((S)-1-(4-(4-methylthiazol-5-yl)phenyl)ethyl)pyrrolidine-2-carboxamide] | < 50 | ≥ 1 | C (“C” indicates maximum degradation < 50%) | ≥ 1
4 | Cc1ncsc1-c1ccc([C@H](C)NC(=O)[C@@H]2C[C@@H](O)CN2C(=O)[C@@H](c2cc(N3CCN(C(=O)[C@H]4CCc5sc6nnc(-c7ccccc7O)cc6c5C4)CC3)no2)C(C)C)cc1 [Compound 52, (2S,4R)-4-hydroxy-1-((R)-2-(3-(4-((S)-3-(2-hydroxyphenyl)-5,6,7,8-tetrahydrobenzo[4,5]thieno[2,3-c]pyridazine-6-carbonyl)piperazin-1-yl)isoxazol-5-yl)-3-methylbutanoyl)-N-((S)-1-(4-(4-methylthiazol-5-yl)phenyl)ethyl)pyrrolidine-2-carboxamide] | < 50 | ≥ 1 | C (“C” indicates maximum degradation < 50%) | ≥ 1
5 | Cc1ncsc1-c1ccc([C@H](C)NC(=O)[C@@H]2C[C@@H](O)CN2C(=O)[C@@H](c2cc(OCCN3CCC(O)(c4sc5nnc(-c6ccccc6O)cc5c4C)CC3)no2)C(C)C)cc1 [Compound 54, (2S,4R)-4-hydroxy-1-((R)-2-(3-(2-(4-hydroxy-4-(3-(2-hydroxyphenyl)-5-methylthieno[2,3-c]pyridazin-6-yl)piperidin-1-yl)ethoxy)isoxazol-5-yl)-3-methylbutanoyl)-N-((S)-1-(4-(4-methylthiazol-5-yl)phenyl)ethyl)pyrrolidine-2-carboxamide] | < 50 | ≥ 1 | A (“A” indicates maximum degradation ≥ 75%) | ≥ 0.01
6 | Cc1cc([C@H](C(=O)N2C[C@H](O)C[C@H]2C(=O)NCc2ccc(-c3scnc3C)cc2OCCCN2CCC(c3sc4nnc(-c5ccccc5O)cc4c3C)CC2)C(C)C)on1 [Compound 57, (2S,4R)-4-hydroxy-N-(2-(3-(4-(3-(2-hydroxyphenyl)-5-methylthieno[2,3-c]pyridazin-6-yl)piperidin-1-yl)propoxy)-4-(4-methylthiazol-5-yl)benzyl)-1-((R)-3-methyl-2-(3-methylisoxazol-5-yl)butanoyl)pyrrolidine-2-carboxamide] | < 50 | ≥ 1 | B (“B” indicates maximum degradation ≥ 50%) | ≥ 0.01
7 | Cc1ncsc1-c1ccc([C@H](C)NC(=O)[C@@H]2C[C@@H](O)CN2C(=O)[C@@H](c2cc(OCCN3C[C@H]4C[C@@H]3C[C@@H]4c3sc4nnc(-c5ccccc5O)cc4c3C)no2)C(C)C)cc1 [Compound 58, (2S,4R)-4-hydroxy-1-[(2R)-2-(3-{2-[(1R,4S,5S)-5-[3-(2-hydroxyphenyl)-5-methylthieno[2,3-c]pyridazin-6-yl]-2-azabicyclo[2.2.1]heptan-2-yl]ethoxy}-1,2-oxazol-5-yl)-3-methylbutanoyl]-N-[(1S)-1-[4-(4-methyl-1,3-thiazol-5-yl)phenyl]ethyl]pyrrolidine-2-carboxamide] | < 50 | ≥ 1 | A (“A” indicates maximum degradation ≥ 75%) | ≥ 0.01
8 | Cc1ncsc1-c1ccc([C@H](C)NC(=O)[C@@H]2C[C@@H](O)CN2C(=O)[C@@H](c2cc(O[C@H]3C[C@H](N4CCC(c5sc6nnc(-c7ccccc7O)cc6c5C)CC4)C3)no2)C(C)C)cc1 [Compound 59, (2S,4R)-4-hydroxy-1-((R)-2-(3-((1r,3R)-3-(4-(3-(2-hydroxyphenyl)-5-methylthieno[2,3-c]pyridazin-6-yl)piperidin-1-yl)cyclobutoxy)isoxazol-5-yl)-3-methylbutanoyl)-N-((S)-1-(4-(4-methylthiazol-5-yl)phenyl)ethyl)pyrrolidine-2-carboxamide] | < 50 | ≥ 1 | A (“A” indicates maximum degradation ≥ 75%) | ≥ 1
9 | Cc1ncsc1-c1ccc([C@H](C)NC(=O)[C@@H]2C[C@@H](O)CN2C(=O)[C@@H](c2cc(OCCN3C[C@H]4C[C@@H]3C[C@H]4c3sc4nnc(-c5ccccc5O)cc4c3C)no2)C(C)C)cc1 [Compound 60, (2S,4R)-4-hydroxy-1-((R)-2-(3-(2-((1R,4S,5R)-5-(3-(2-hydroxyphenyl)-5-methylthieno[2,3-c]pyridazin-6-yl)-2-azabicyclo[2.2.1]heptan-2-yl)ethoxy)isoxazol-5-yl)-3-methylbutanoyl)-N-((S)-1-(4-(4-methylthiazol-5-yl)phenyl)ethyl)pyrrolidine-2-carboxamide] | ≥ 50 | ≥ 0.1 | A (“A” indicates maximum degradation ≥ 75%) | ≥ 0.01
10 | Cc1ncsc1-c1ccc([C@H](C)NC(=O)[C@@H]2C[C@@H](O)CN2C(=O)[C@@H](c2cc(O[C@H]3C[C@@H](N4CCC(c5sc6nnc(-c7ccccc7O)cc6c5C)CC4)C3)no2)C(C)C)cc1 [Compound 61, (2S,4R)-4-hydroxy-1-((R)-2-(3-((1s,3S)-3-(4-(3-(2-hydroxyphenyl)-5-methylthieno[2,3-c]pyridazin-6-yl)piperidin-1-yl)cyclobutoxy)isoxazol-5-yl)-3-methylbutanoyl)-N-((S)-1-(4-(4-methylthiazol-5-yl)phenyl)ethyl)pyrrolidine-2-carboxamide] | < 50 | ≥ 1 | C (“C” indicates maximum degradation < 50%) | ≥ 1
